Experimental data taken from US4376785A, “Cyclopropanecarboxylates and a low fish toxic insecticide and/or acaricide containing them” (priority 1980, dated 1983).
Read-outs that look alike come from different tables or passages of the source.

What was measured:
[1] = test system: killifishes (Oryzias latipes); assay: Simulated paddy field box test, killifish survival, Test example 6; format: in vivo; conditions: wettable powder, 100 ppm, 100 liter/10 are, water depth 5 cm, after 48 hours
Procedure: (§1) The wettable powder of each of the present compounds (1), (3), (5), (6) and (11) prepared in Preparation example 4 was diluted with water so that the concentration of active ingredient was 100 ppm. Soil was placed in a plastic box [5 m×5 m×2 m (deep)] to a level of 50 cm from the bottom, and rice plants about 50 cm high were transplanted at invervals of 50 cm. Water was then placed in the box so that water depth was 5 cm, and 20 killifishes (Oryzias latipes) were liberated therein. Thereafter, the above dilute solution was sprayed on the box at a rate of 100 liter/10 are. The solution fell on the rice plants as well as on the water surface.
(§2) One hour after treatment, 100 female adults of green rice leafhopper (Nephotettix cincticeps) were liberated in the box which was immediately covered with a net.

[2] = test system: green rice leafhopper (Nephotettix cincticeps); assay: Simulated paddy field box test, green rice leafhopper, Test example 6; format: in vivo; conditions: wettable powder, 100 ppm, 100 liter/10 are, after 48 hours
Procedure: as §1, §2

[3] = test system: green rice leafhopper (Nephotettix cincticeps), R-strain; assay: Insecticidal activity against green rice leafhopper, sprayed rice plants, Test example 1; format: in vivo; conditions: green rice leafhopper female adults, spray on rice plant, 26° C., 24 hours
Procedure: The emulsifiable concentrates of the present compounds and reference compounds prepared in Preparation example 1 were each formulated into test solutions having four different concentrations of active ingredient between 500 ppm and 0.5 ppm. Each test solution was sprayed on a rice plant in a 180-ml plastic cup which had elapsed one month after sowing, at a rate of 15 ml/2 cups by means of a turn table. After air-drying, the rice plate was covered with a wire-screen cage, and 15 female adults of green rice leafhopper (Nephotettix cincticeps) (a strain resistant to carbamates and organo-phosphates, hereinafter referred to as R-strain) were liberated therein. The plant was placed in an artificial climate chamber kept at 26° C. After 24 hours, the dead and alive were examined. The median lethal concentratin [LC50 (ppm)] was calculated from the mortality determined by 3 replications. […]

[4] = Toxicity to killifish (TLm48), Test example 1; format: in vivo, Oryzias latipes; conditions: for selectivity ratio: in vivo, TLm48 divided by concentration in water at green rice leafhopper LC50, read-out: Safety coefficient to fishes (a)/(b); for LC50 at 48 h: water, killifish, medium tolerance limit, read-out: Toxicity to fishes TLm48 (a)
Procedure: (§3) Toxicity to killifish (Oryzias latipes) was tested accordig to the test method for toxicity to fishes described in Notification B No. 2735 of the Ministry of Agriculture and Forestry (Nov. 25, 1965). Namely, each of the present compounds (1), (2), (4), (5), (6), (8), (9), (11) and reference compounds was dissolved or suspended in "Tween 80" and diluted successively with dechlorinated tap water. Ten killifish (0.2-0.3 g per fish) were released in a 10-liter glass vessel containing 5 liters of each preparation.
(§4) In order to make it clearer that the present compounds have a low toxicity to fishes as well as a high insecticidal activity, a safety coefficient to fishes was calculated from the test results of toxicity to fishes and insecticidal activity. [formula]
(§5) A detailed explanation will be given to a method of how to calculate the safety coefficient. In the case of green rice leafhoppers, calculation was based on the concentration of active ingredient in water obtained by applying a test solution containing the active ingredient in an amount corresponding to LC50 (ppm) to a flooded paddy field 5 cm deep at a rate of 100 liter/10 are, provided that all the active ingredient applied entered the water.
(§6) For example, the safety coefficient to fishes of the present compound (1) is calculated as follows: The quantity of water in a flooded paddy field 5 cm deep and 10 are in area is 50 tons; when a test solution containing the active ingredient in an amount corresponding to LC50 (ppm) is added to the paddy field at a rate of 100 liter/10 are the concentration of the active ingredient in water (hereinafter referred to as (b)) is 0.008 pp; as the toxicity to fishes [TLm48 (ppm)] (hereinafter referred to as (a)) is >2.0 ppm, said coefficient can be calculated by dividing (a) by (b). In this case, the coefficient is >250, which means that the present compound (1) has a safety higher than 250-fold.

[5] = test system: killifish (Oryzias latipes); assay: Toxicity to killifish (TLm48), Test example 1; format: in vivo; conditions: killifish, medium tolerance limit, 48 hours
Procedure: as §3, §4, §5, §6

[6] = test system: CSMA strain housefly (Musca domestica); assay: Topical application to housefly adults, Test example 8; format: in vivo; conditions: topical to ventral thorax, 0.5 μl/adult, female adults, 24 hours
Procedure: The present compounds as below and reference compounds were each diluted with acetone into test solutions having four different concentrations of active ingredient. Each test solution was topically applied to the ventral throrax of CSMA strain housefly female adults (Musca domestica), at a rate of 0.5 μl/adult by means of a microapplicator.
The adults were then liberated in a polyethylene cup and fed with milk, sugar and water. After 24 hours, the dead and alive were observed. The median lethal dosage (LD50 μg/adult) was obtained from the morality (3 replications).

[7] = test system: carmine mites (Tetranychus cinnabarinus); assay: Damage to rice plants by carmine mites, Test example 4; format: in vivo; conditions: 500 ppm spray, after 10 days
Procedure: The emulsifiable concentrate of each of the present compounds (3), (5), (9) and (11) prepared in Preparation example 1 was diluted with water so that the concentration of the active ingredient was 500 ppm. The dilute liquor was thoroughly sprayed on rice plants (grown in a 1/10,000 are Waner's pot) on which carmine mites (Tetranychus cinnabarinus) in all stages were made parasitic.

[8] = test system: green rice leafhopper (Nephotettix cincticeps); assay: Residual effect test, Text example 5; format: in vivo; conditions: 20 cc per pot, 24 hours
Procedure: The emulsifiable concentrate of each of the present compounds (5) and (11) prepared in Preparation example 1 was diluted with water so that the conentration of active ingredient was 400 ppm. Thereafter, 20 cc of the dilute solution was sprayed on rice plants grown in a 1/10,000 are Wagner's pot. The rice plants were air-dried and covered with a wire-screen cage, and 15 female adults of green rice leafhopper (Nephotettix cincticeps) were liberated therein. After 24 hours, the dead and alive were examined to obtain mortality. In order to examine the residual effect, the pot was then left as it was for 7 days, and the test insects were liberated in the same manner as above. After 24 hours, the mortality was examined. The experiment was carried out in a greenhouse and the number of replications was three.

[9] = test system: yellow fever mosquito (Aedes aegypti); format: in vivo; conditions: 50 mg of granules (Preparation example 6) in 100 ml water, full grown larvae, after 24 hours
Procedure: Fifty milligrams of each of the granules of the present compounds (5) and (11) obtained in Preparation example 6 was placed in a 100-ml beaker containing 100 ml of distilled water, and 30 full grown larvae of yellow fever mosquito (Aedes aegypti) were liberated therein. After 24 hours, 100% of the larvae could be killed.

[10] = test system: housefly (Musca domestica); assay: Housefly mortality, treated filter paper with bait, Test example 7; format: in vivo; conditions: 0.7 ml on filter paper, housefly female adults, 48 hours
Procedure: The emulsifiable concentrate obtained in preparation Example 1 was diluted 200 times with water (corresponding to 500 ppm of the active ingredient). On the bottom a polyethylene cup of 5.5 cm in diameter was placed a piece of filter paper of the same size, and 0.7 ml of the above dilute liquor was dropped on the filter paper. Sucrose (30 mg) was placed on the paper as bait. Thereafter, 10 housefly female adults (Musca domestica) were liberated in the cup which was then covered with a lid. After 48 hours, the dead and alive were counted to obtain mortality (4 replications).

| Compound | killifishes alive [1] | green rice leafhoppers alive [2] | LC50 [3] | selectivity ratio [4] | LC50 at 48 h [4] | Toxicity to fishes TLm48 (a) [5] | LD50 [6] | damage to rice plants by carmine mites [7] | mortality at 400 ppm ([8]; insects liberated 7 days after treatment, read-out: Mortality, effect 7 days after treatment) | mortality at 400 ppm ([8]; read-out: Mortality, effect immediately after treatment) | larvae killed [9] | mortality at 500 ppm [10] |
| --- | --- | --- | --- | --- | --- | --- | --- | --- | --- | --- | --- | --- |
| CC1(C)[C@H](C(=O)OC(C#N)c2ccc(F)c(Oc3ccc(Br)cc3)c2)[C@H]1C(Br)C(Cl)(Cl)Br (relative stereo) [compound (1), 3-(4-Bromophenoxy)-4-fluoro-α-cyanobenzyl dl-trans-2,2-dimethyl-3-(1,2-dibromo-2,2-dichloroethyl)cyclopropanecarboxylate] | all of the killifishes were alive | no alive green rice leafhoppers were found | 3.8 ppm | > 250 | > 2 µg/mL | > 2.0 ppm | – | – | – | – | – | – |
| CC1(C)C(C(=O)OC(C#N)c2ccc(F)c(Oc3ccc(Cl)cc3)c2)C1C(Br)C(Cl)(Cl)Br (stereo not drawn) [compound (5), 3-(4-Chlorophenoxy)-4-fluoro-α-cyanobenzyl 2,2-dimethyl-3-(1,2-dibromo-2,2-dichloroethyl)cyclopropanecarboxylate] | all of the killifishes were alive | no alive green rice leafhoppers were found | 4.8 ppm | > 100 | > 1 µg/mL | – | 0.033 μg/adult | the spreading of the damage could be prevented | 100% | 100% | 100% | 100% |
